Article PMC12030426, “Translational Pharmacokinetic-Pharmacodynamic Modeling of a Novel Oral Dihydroorotate Dehydrogenase (DHODH) Inhibitor, HOSU-53 (JBZ-001)” (Pharmaceutics, 2025)
“Also recorded” adds a separate entry of the source.

Key:
[1] = noncompartmental PK in mice; assay type: in vivo
[2] = noncompartmental PK in rats; assay type: in vivo
Source text: (§1) Non-clinical PK of HOSU-53 has been studied and analyzed after single and multiple doses with noncompartmental analysis (NCA). […] F was similar between the two species, with mean values of approximately 60% and 50% in rats and dogs, respectively.

[3] = noncompartmental PK in dogs; assay type: in vivo
Source text: as §1

plasma DHO [4] = assay: correlation of plasma DHO exposure with efficacy, tolerability and toxicity in repeat dose studies; assay type: in vivo, rats, dogs, and tumor-bearing mice; settings: based on preclinical experiments
Procedure: These GI toxicities are consistent with the high proliferative demand of intestinal epithelial cells, which rely on pyrimidine availability for DNA synthesis and repair. The No Observed Adverse Effect Levels (NOAELs) from the rat and dog GLP toxicity studies were then determined to be one dose level lower, which are 2.5 mg/kg (PO, QD) and 0.6 mg/kg (PO, QD), respectively. Based on repeat dose studies in rats, dogs, and tumor-bearing mice, efficacy, tolerability, and toxicity can be correlated with levels of the PD biomarker DHO in plasma.

population PK model, dog = assay type: in vivo
Procedure: (§2) Population PK analyses were performed using nonlinear mixed-effects modeling implemented in Monolix software (Monolix Suite 2024R1, Antony, France). This approach utilizes the stochastic approximation of the expectation-maximization (SAEM) algorithm coupled with a Markov chain Monte Carlo (MCMC) method to optimize the likelihood. One- and two-compartment PK models incorporating zero- and first-order absorption with linear elimination were evaluated. Interindividual variability (IIV) in PK parameters was assumed to follow a log-normal distribution, except for bioavailability (F), which was modeled using a logit-normal distribution. An exponential model was applied, as described by the following equation: θi=θp×e^ηi where θi is the model predicted PK parameter for the ith animal, θp is the typical population PK parameter, and ηi is the random variable of normal distribution with mean zero and variance ω^2 .
(§3) Residual or random unexplained variability was evaluated using additive, proportional, and combined error models. For each model, several criteria were assessed, including the objective function value (OFV), Akaike Information Criterion (AIC), Bayesian Information Criterion (BIC), corrected Bayesian Information Criterion (BICc), and the precision of parameter estimates, expressed as residual standard errors.
During the development of the PK model for dogs, a two-compartment model was first constructed using IV data alone. […] This approach provided reasonable estimates for F and Ka, with acceptable RSE values (Table 3). […] The GOF plots for the final PK models of dog and mouse are presented in Figure 1 and Supplementary Figure S1, respectively.

plasma DHO [5] = assay: population PD model (indirect turnover, plasma DHO), dog; assay type: in vivo
Procedure: (§4) To develop the PK/PD models, a sequential approach was tested for dog data, involving the initial construction of the PK model, fixing the PK parameters with population estimated thetas and eta variances, and then estimating the PD parameters. For mouse and rat data, a simultaneous approach was employed, estimating PK and PD parameters concurrently, assuming log-normal distribution for both. To account for the delay in PD response that results from the inhibition of DHODH, the factor controlling the dissipation of the response, various modeling approaches were employed. One approach involved using an effect compartment model with an equilibrium half-life parameter ( ke0 ) to characterize the delay,
(§5) The final PK/PD model for both species was an indirect turnover model with degradation inhibition. The parameters for the final dog and mouse PK/PD models are presented in Table 3 and Supplementary Table S3, respectively.

[6] = population PK model, mouse; assay type: in vivo
Procedure: as §2, §3
The final structural PK models for both mouse and dog data were two-compartment disposition models with first-order absorption and linear elimination. We ultimately chose to exclude rat data from the population modeling effort, as described below in this section. The parameters for the final dog and mouse PK models are presented in Table 3 and Supplementary Table S3, respectively. All parameters were estimated with good precision, as indicated by the %RSE of the estimates. Proportional and combined error models were selected for the mouse and dog data, respectively.

plasma DHO [7] = assay: population PD model (indirect turnover, plasma DHO), mouse; assay type: in vivo
Procedure: as §4, §5

pKa = assay type: physicochemical; settings: experimental data
Procedure: (§6) PBPK models were developed using PK-Sim v11.0 in rats and beagle dogs, and each was used to predict data in the other species, including mice. A base model was parameterized using lipophilicity, plasma protein binding, thermodynamic solubility, and pKa measured from in vitro studies. Half-life of HOSU-53 measured in beagle cryo-preserved hepatocytes was used along with hepatocyte incubation density within the In Vitro to In Vivo Extrapolation (IVIVE) tools in PK-Sim to estimate metabolic clearance in vivo [25]. Renal clearance of unbound plasma HOSU-53 was assumed to be driven solely by glomerular filtration rate (GFR). Various methods were used to calculate partition coefficients and cellular permeabilities in PK-Sim. PK predictions generated for each combination of calculation methods were compared to the mean observed IV profile, and the methods that best matched the observed data were selected. Ultimately, partition coefficients were calculated using the Rodgers and Rowland method, and cellular permeabilities were calculated using the charge-dependent Schmitt method. PK following oral administration of HOSU-53 was used to identify parameter values for intestinal permeability for the sodium and lysine salt forms administered in deionized (DI) water. […]

thermodynamic solubility = assay type: physicochemical; settings: pH 6.5; experimental data
Procedure: as §6

[8] = in vitro hepatic stability assay scaled by IVIVE, rat; assay type: in vitro ADME; settings: scaled from in vitro hepatic stability assay
Procedure: as §6

human DHODH = human DHODH (Homo sapiens, UniProt Q02127); set-up: method as in PMID 38646934; settings: cell-free; read-out: IC50 in cell-free human DHODH inhibition assay; cited from earlier work
PXR = tested on: PXR; set-up: method as in PMID 38646934; settings: cited from earlier work
hERG ion channel = tested on: hERG ion channel; set-up: method as in PMID 38646934; settings: cited from earlier work
[9] = set-up: method as in PMID 38646934; settings: cited from earlier work
[10] = set-up: method as in PMID 38646934; settings: cited from earlier work; remark: listed apart in the source
[11] = tested on: MOLM-13 cell line–derived xenograft; set-up: method as in PMID 38646934; settings: combined with other front-line therapies; cited from earlier work
PPARγ = settings: cited from earlier work
[12] = 28-day GLP repeat-dose toxicity study in rats
Procedure: A series of PK and PD studies was carried out using a range of single and repeat dosing regimens in rats, exploring variations in formulation and dosing schedules. The initial experiment evaluated the PK/PD profile following a single dose of 10 mg/kg PO and 3 mg/kg IV using 40% HPBCD. Building on the single-dose results, repeat dosing was investigated at 1 (both sexes), 3 (both sexes), 6 (females), and 10 (males) mg/kg (PO, QD) and 30 (both sexes) mg/kg (PO, BIWK) regimen in 40% HPBCD formulation. To extend the findings into a disease-relevant context, repeat dosing was evaluated for 14 days in a MOLM-13 xenograft model in the Sprague Dawley Rag2−/− Il2rg−/− (SRG) male rats, where doses of 1, 3, and 10 mg/kg (PO, QD) were administered, alongside 30 mg/kg biweekly (PO, BIWK).

[13] = 28-day GLP repeat-dose toxicity study in dogs
Procedure: The PK/PD characterization of HOSU-53 in beagle dogs was conducted across several studies. An initial single-dose PK/PD evaluation was carried out with male dogs receiving HOSU-53 (10 mg/kg, PO; 3 mg/kg, IV) in 40% HPBCD. Then, repeat-dose PK/PD over 7 days was assessed in male and female dogs with doses of 0.3, 1, and 3 mg/kg (PO, QD) in deionized water. […] Additional GLP toxicokinetic and toxicodynamic evaluations were performed, where dogs were dosed at 0.2, 0.6, and 1 mg/kg (PO, QD) for 28 days followed by a 14-day recovery period (Details in Supplementary Table S1).

Chain of human DHODH (Q02127 whole entry): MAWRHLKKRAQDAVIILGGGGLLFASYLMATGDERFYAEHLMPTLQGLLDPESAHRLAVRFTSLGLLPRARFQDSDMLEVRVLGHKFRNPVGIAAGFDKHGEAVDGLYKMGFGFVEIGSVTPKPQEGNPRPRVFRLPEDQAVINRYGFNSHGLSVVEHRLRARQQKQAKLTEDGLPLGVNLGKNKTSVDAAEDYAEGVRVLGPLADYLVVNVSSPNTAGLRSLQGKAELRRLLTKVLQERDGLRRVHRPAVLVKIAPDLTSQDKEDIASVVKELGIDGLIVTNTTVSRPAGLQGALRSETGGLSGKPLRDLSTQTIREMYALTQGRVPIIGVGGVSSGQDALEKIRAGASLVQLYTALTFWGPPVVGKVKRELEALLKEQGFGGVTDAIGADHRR

SMILES: CCCCOc1cccc(-c2ccc(-c3cc(C(=O)O)c4cc(F)ccc4n3)cc2)c1 [HOSU-53]
- mean T1/2 ([1]; NCA): 30 h
- dose proportionality of plasma levels ([1]; repeated oral dosing, higher doses, dose range 4–30 mg/kg): less-than-dose-proportional manner
- F ([1]; single IV 3 mg/kg and oral 10 mg/kg, NCA): 86%
- F ([2]; mean, NCA): approximately 60%
- dose proportionality of plasma levels ([2]; repeated oral dosing, higher doses, dose range 3–10 mg/kg): less-than-dose-proportional manner
- F ([3]; mean, NCA): ~50%
- dose proportionality of plasma levels ([3]; repeated oral dosing, dose range 0.3–3 mg/kg): dose-proportional manner
- AUCtau,ss of DHO at which optimal efficacy is expected (plasma DHO [4]): around 300 µM·h
- F (%) (population PK model, dog; bootstrap point estimate): 0.67 fraction
- Ka (population PK model, dog; bootstrap point estimate): 1.55 h⁻¹
- F (%) (population PK model, dog; model estimate (RSE%)): 0.67 (2.8) %
- Ka (population PK model, dog; model estimate (RSE%)): 1.53 (12.6) /h
- CL/F (population PK model, dog; model estimate, fixed): 150 Fix mL/h
- Q (population PK model, dog; model estimate, fixed): 400 Fix mL/h
- V1 (population PK model, dog; model estimate, fixed): 980 Fix mL
- V2 (population PK model, dog; model estimate, fixed): 490 Fix mL
- IC50 (plasma DHO [5]; bootstrap point estimate): 80 nM
- Kout (plasma DHO [5]; bootstrap point estimate): 70 h⁻¹
- gamma (plasma DHO [5]; bootstrap point estimate): 1.86
- Kout (plasma DHO [5]; model estimate (RSE%)): 52 (11.4) /h
- gamma (plasma DHO [5]; model estimate (RSE%)): 1.9 (1.6)
- IC50 (plasma DHO [5]; plasma HOSU-53 concentration, inhibition of DHO degradation, model estimate (RSE%)): 100 nM
- CL/F ([6]; bootstrap point estimate): 0.07 mL/h
- F (%) ([6]; bootstrap point estimate): 54%
- Ka ([6]; bootstrap point estimate): 1.2 h⁻¹
- Q ([6]; bootstrap point estimate): 1.6 mL/h
- V1 ([6]; bootstrap point estimate): 1.3 mL
- V2 ([6]; bootstrap point estimate): 1.1 mL
- CL/F ([6]; model estimate (RSE %)): 0.07 (5.0) mL/h
- F (%) ([6]; model estimate (RSE %)): 0.53 (0.02) %
- Ka ([6]; model estimate (RSE %)): 1.0 (0.02) /h
- Q ([6]; model estimate (RSE %)): 1.6 (1.7) mL/h
- V1 ([6]; model estimate (RSE %)): 1.2 (8.7) mL
- V2 ([6]; model estimate (RSE %)): 1.2 (5.3) mL
- IC50 (plasma DHO [7]; bootstrap point estimate): 1610 nM
- Kout (plasma DHO [7]; bootstrap point estimate): 127 h⁻¹
- gamma (plasma DHO [7]; bootstrap point estimate): 1.63
- Kout (plasma DHO [7]; model estimate (RSE %)): 155 (12.7) /h
- gamma (plasma DHO [7]; model estimate (RSE %)): 1.71 (0.1)
- IC50 (plasma DHO [7]; plasma HOSU-53 concentration, inhibition of DHO degradation, model estimate (RSE %)): 1550 nM
- pKa (Acid) (pKa): 3.05 (Acid)
- pKa (Base) (pKa): 1.19 (Base)
- Solubility (thermodynamic solubility): 18.8 μg/mL (pH 6.5)
- Specific Clearance [8]: 7.29 min⁻¹
- IC50 (human DHODH): 0.95 nM
- PXR induction (PXR): does not induce PXR
- hERG ion channel inhibition (hERG ion channel): does not induce PXR or inhibit the hERG ion channel
- Ames mutagenicity [9]: negative
- micronucleus assay [10]: negative
- survival [11]: prolonged survival benefits
- PPARγ agonism potency, fold less than potency against MOLM-13 AML cells in cell viability assays (PPARγ): 1500 ×
- adverse effects ([12]; male and female rats, 5 mg/kg PO, QD): decreased lymphoid cellularity in the thymus, mild-to-moderate decreases in lymphocyte counts, and lower thymus weights
- HNSTD or STD10 ([12]; rats): 5 mg/kg/day
- NOAEL ([12]; rats, PO, QD, 28-day GLP): 2.5 mg/kg
- maximum DHO concentration with no toxicity ([12]; rats, preclinical toxicokinetic data): ~ 2870 ng/mL
- human equivalent dose (HED) ([12]; scaled by body surface area from rats (divided by 6.2)): 0.8 mg/kg/day
- survival ([13]; all dogs, 28-day GLP study): survived until scheduled euthanasia
- HNSTD or STD10 ([13]; dogs): 0.6 mg/kg/day
- NOAEL ([13]; dogs, PO, QD, 28-day GLP): 0.6 mg/kg
- maximum DHO concentration with no toxicity ([13]; dogs, preclinical toxicokinetic data): ~ 5850 ng/mL
- heart rate and RR interval ([13]; female dogs, 1 mg/kg PO, QD, 1–2 h postdosing, weeks 1 and 4): lower heart rate and longer RR interval duration
- adverse effects ([13]; male and female dogs, 1 mg/kg PO, QD, 1 mg/kg): decreased food consumption, lower body weights, and adverse intestinal microscopic findings related to mucosal epithelial cell loss; also recorded: decreased food consumption, lower body weights, and adverse intestinal (colon, ileum, and/or jejunum) microscopic findings related to mucosal epithelial cell loss
- human equivalent dose (HED) ([13]; scaled by body surface area from dogs (divided by 1.8)): 0.3 mg/kg/day
